Results taken from the NIST ThermoML archive (doi:10.1016/j.fluid.2008.06.019).

Legend:
[1] = 298.15 K; 101.33 kPa; Liquid
[2] = xn = mol fraction of the nth substance listed; conditions: 298.15 K, 101 kPa, Liquid

CCCO [propan-1-ol]
Conditions | mass density [kg/m3]
[1] | 800.61

CC(C)OC(C)C [diisopropyl ether] + CCCO
[2]
Conditions | mass density [kg/m3]
x1 = 0.0508 | 794.63
x1 = 0.0999 | 789.64
x1 = 0.2 | 779.84
x1 = 0.2998 | 770.67
x1 = 0.3993 | 762.07
x1 = 0.4999 | 754.19
x1 = 0.6006 | 746.71
x1 = 0.7007 | 739.41
x1 = 0.8001 | 732.66
x1 = 0.9015 | 725.59
x1 = 0.9514 | 722.22

CC(C)OC(C)C [diisopropyl ether]
Conditions | mass density [kg/m3]
[1] | 719.17

Cc1ccccc1 [toluene]
Conditions | mass density [kg/m3]
[1] | 862.23

CC(C)OC(C)C [diisopropyl ether] + Cc1ccccc1
[2]
Conditions | mass density [kg/m3]
x1 = 0.05 | 853.94
x1 = 0.0995 | 845.89
x1 = 0.2004 | 829.97
x1 = 0.2999 | 814.46
x1 = 0.4001 | 799.53
x1 = 0.5003 | 784.92
x1 = 0.6001 | 770.99
x1 = 0.7004 | 757.31
x1 = 0.8003 | 744.27
x1 = 0.9003 | 731.28
x1 = 0.9498 | 725.19

Cc1ccccc1 [toluene] + CCCO
[2]
Conditions | mass density [kg/m3]
x2 = 0.0491 | 859.7
x2 = 0.0987 | 857.27
x2 = 0.2003 | 852.39
x2 = 0.2995 | 847.48
x2 = 0.4006 | 842.21
x2 = 0.5001 | 836.7
x2 = 0.6001 | 830.71
x2 = 0.7005 | 824.13
x2 = 0.8001 | 817.01
x2 = 0.9006 | 809.12
x2 = 0.9497 | 805
